# US7164021B2, “Opiate analogs selective for the δ-opioid receptor” (The Curators of The University of Missouri, priority 2002, dated 2007)
# Key:
# δ receptor = δ receptor (Mus musculus, UniProt P32300); details: experimental value of the reference opioid; cited from earlier work
# κ receptor [1] = target: κ receptor (Mus musculus, UniProt P33534); details: experimental value of the reference opioid; cited from earlier work
# μ receptor = μ receptor (Rattus norvegicus, UniProt P33535); details: experimental value of the reference opioid; cited from earlier work
# delta receptor = delta receptor (Homo sapiens, UniProt P41143); test: Competitive analysis vs 3H-Bremazocine, delta receptor; type: binding
# mu receptor = mu receptor (Homo sapiens, UniProt P35372); test: Competitive analysis vs 3H-Bremazocine, mu receptor; type: binding
# κ receptor [2] = target: κ receptor (Homo sapiens, UniProt P41145); test: Competitive analysis vs 3H-Bremazocine, κ receptor; type: binding; details: reference compound 3H-Bremazocine
SMILES,experimental affinity δ receptor (value in parenthesis) (δ receptor),experimental affinity κ receptor (value in parenthesis) (κ receptor [1]),experimental affinity μ receptor (value in parenthesis) (μ receptor),"Ki (delta receptor; competitive analysis, 1.64 nM 3H-Bremazocine, dose response curve FIG. 7A, read-out: Representative Ki δ (delta binding affinity)) [nM]","% Inhibition δ (delta receptor; competitive analysis, reference compound 3H-Bremazocine) [%]",delta/mu selectivity (delta receptor; ratio delta vs mu binding),% Inhibition μ (mu receptor) [%],"Ki (mu receptor; competitive analysis, 1.64 nM 3H-Bremazocine, dose response curve FIG. 7B, read-out: Representative Ki μ) [nM]",% Inhibition κ (κ receptor [2]) [%]
"Oc1ccc2c3c1O[C@H]1c4[nH]c5ccccc5c4C[C@@]4(O)[C@@H](C2)N(CC2CC2)CC[C@]314 [NTI, naltrindole]",10.70,7.18,–,–,–,–,–,–,–
"CN1CC[C@]23c4c5ccc(O)c4OC2C(=O)C2(Cc4ccccc4C2)C[C@@]3(O)C1C5 (some centres unmarked) [SIOM, spiroindanyloxymorphone]",8.77,< 6.00,7.48,–,–,–,–,–,–
Oc1cccc(-n2cnnc2-c2cccc(-c3ccccc3)c2)c1 [DST3-2],–,–,–,140,84,10/1,84,1000,42
